Patent publication EP0135429B1, “The synthesis of cyclopropane amino acids and peptides” (THE UNIVERSITY OF GEORGIA RESEARCH FOUNDATION, INC., priority 1983, dated 1992)
Peptide text beside a SMILES is read from it.

Key:
[1] = system: intestinal enzymes such as carboxypeptidase and chymotrypsin; assay: hydrolysis in the gastrointestinal tract or blood of the consumer; format: in vivo; conditions: after drinking a sweetened beverage
α-chymotrypsin = α-chymotrypsin (Bos taurus, UniProt P00766); conditions: after 15 minutes at room temperature; 10:1 substrate:enzyme; 0.5 M ammonium acetate, pH 8

For `COC(=O)[C@H](Cc1ccccc1)NC(=O)C1(N)CC1C(=O)O` (some centres unmarked) [Example XXXVIII, 1-Aminocyclopropane-2-carboxylic Acid-1-carboxyl Phenylalanine Methyl Ester], the “does not hydrolyze cleave or break down in the gastrointestinal tract or blood” value [1] was “at least 24 hours”.

With `COC(=O)[C@H](Cc1ccccc1)NC(=O)[C@@H](N)CC(=O)O` [aspartame] (H-Asp-Phe-OMe) the “hydrolysis by α-chymotrypsin” value (α-chymotrypsin) was “hydrolyzed”.
